In US10196361B2, “Sodium salt of uric acid transporter inhibitor and crystalline form thereof” (Jiangsu Hengrui Medicine Co., Ltd., priority 2015, dated 2019):

Legend:
solubility in water = assay type: physicochemical
[1] = pharmacokinetic assay in rats; assay type: in vivo, Sprague-Dawley (SD) rats; conditions: for AUC(0-t) / half-life / MRT inf / Cmax: single; for AUC(0-t): read-out: Area under curve AUC0-t; for half-life: read-out: Half life t1/2 (converted); for MRT inf: read-out: Resistance time MRT0-∞; for Cmax: read-out: Plasma concentration Cmax
Method: In the pharmacokinetic assay of the compound of Example 1 of the present invention, Sprague-Dawley (SD) rats were used as test animals. The compound of Example 1 was administrated intragastrically and intravenously to rats, then the drug concentration in the plasma at different time points was determined by a LC/MS/MS method to study the pharmacokinetic behavior and to evaluate the pharmacokinetic characteristics of the compound of the present invention in rats.

[2] = stability of crystal form I under lighting, heating and high humidity (purity by HPLC); assay type: physicochemical; conditions: for stability: spread flat in the air, lighting, high temperature and high humidity
Method: The sample of crystal form I prepared in Example 1 was spread flat in the air to test its stability under conditions of lighting (4500 Lux), heating (40° C., 60° C.), and high humidity (RH 75%, RH 90%). Samplings were carried out on Day 5 and Day 10.

[3] = pharmacokinetic assay in dogs; assay type: in vivo, Beagle dogs; conditions: for AUC(0-t) / half-life / MRT inf / Cmax: single; for AUC(0-t): read-out: Area under curve AUC0-t; for half-life: read-out: Half life t1/2 (converted); for MRT inf: read-out: Resistance time MRT0-∞; for Cmax: read-out: Plasma concentration Cmax
Method: In the pharmacokinetic assay of the compound of Example 1 of the present invention, Beagle dogs were used as test animals. The compound of Example 1 was administrated intragastrically and intravenously to dogs, then the drug concentration in the plasma at different time points was determined by a LC/MS/MS method to study the pharmacokinetic behavior and to evaluate the pharmacokinetic characteristics of the compound of the present invention in dogs.

[4] = special stability study of crystal form I (grinding, heating, pressing); assay type: physicochemical
Text: Crystal form I of the compound of formula (I) prepared according to the method of Example 1 was ground, heated and pressed.

[5] = Sprague-Dawley, rat, plasma, intravenous, 3 mg/kg
[6] = Sprague-Dawley, rat, plasma, po, intragastric, 3 mg/kg
[7] = Sprague-Dawley, rat, plasma, po, intragastric, 9 mg/kg
[8] = Sprague-Dawley, rat, plasma, po, intragastric, 27 mg/kg
[9] = Beagle, dog, plasma, intravenous, 3 mg/kg
[10] = Beagle, dog, plasma, po, intragastric, 3 mg/kg
[11] = Beagle, dog, plasma, po, intragastric, 9 mg/kg
[12] = beagle, dog, plasma, po, intragastric, 27 mg/kg

SMILES: O=C([O-])C1(Sc2ccnc3ccc(Br)cc23)CCC1.[Na+] [Example 1, sodium 1-((6-bromoquinolin-4-yl)thio)cyclobutane-1-carboxylate]
- solubility (solubility in water): 140 µg/mL
- oral absorption [1]: well absorbed
- AUC(0-t) [1, 5]: 56000 ± 19600 ng·h/mL
- half-life [1, 5]: 5.5 ± 1.88 h
- MRT inf [1, 5]: 6.18 ± 1.33 h
- AUC(0-t) [1, 6]: 41500 ± 27200 ng·h/mL
- half-life [1, 6]: 4.58 ± 0.85 h
- Cmax [1, 6]: 10500 ± 7900 ng/mL
- MRT inf [1, 6]: 6.15 ± 1.51 h
- AUC(0-t) [1, 7]: 119000 ± 65000 ng·h/mL
- half-life [1, 7]: 5.07 ± 2.08 h
- Cmax [1, 7]: 22000 ± 11000 ng/mL
- MRT inf [1, 7]: 7.11 ± 1.75 h
- AUC(0-t) [1, 8]: 336000 ± 241000 ng·h/mL
- half-life [1, 8]: 4.59 ± 0.5 h
- Cmax [1, 8]: 38800 ± 17000 ng/mL
- MRT inf [1, 8]: 7.09 ± 1.33 h
- bioavailability ([1]; Sprague-Dawley, rat, plasma, po, single intragastric 3 mg/kg, from mean AUC0-t, read-out: absolute bioavailability): 74.1%
- purity as detected by HPLC ([2]; 40° C., day 0): 99.76%
- purity as detected by HPLC ([2]; 40° C., day 5): 99.73%
- purity as detected by HPLC ([2]; 40° C., day 10): 99.73%
- purity as detected by HPLC ([2]; 60° C., day 0): 99.76%
- purity as detected by HPLC ([2]; 60° C., day 5): 99.73%
- purity as detected by HPLC ([2]; 60° C., day 10): 99.71%
- purity as detected by HPLC ([2]; Lighting (4500 Lux), day 0): 99.76%
- purity as detected by HPLC ([2]; Lighting (4500 Lux), day 5): 99.75%
- purity as detected by HPLC ([2]; Lighting (4500 Lux), day 10): 99.70%
- purity as detected by HPLC ([2]; RH 75%, day 0): 99.76%
- purity as detected by HPLC ([2]; RH 75%, day 5): 99.74%
- purity as detected by HPLC ([2]; RH 75%, day 10): 99.74%
- purity as detected by HPLC ([2]; RH 90%, day 0): 99.76%
- purity as detected by HPLC ([2]; RH 90%, day 5): 99.74%
- purity as detected by HPLC ([2]; RH 90%, day 10): 99.73%
- stability ([2]; listed as crystal form I): good stability
- stability ([2]; listed as crystal form I of the compound of formula (I)): stable
- oral absorption [3]: well absorbed
- AUC(0-t) [3, 9]: 14500 ± 3600 ng·h/mL
- half-life [3, 9]: 4.51 ± 2.25 h
- MRT inf [3, 9]: 3.57 ± 1.89 h
- AUC(0-t) [3, 10]: 8630 ± 3440 ng·h/mL
- half-life [3, 10]: 3.49 ± 1.2 h
- Cmax [3, 10]: 8450 ± 2100 ng/mL
- MRT inf [3, 10]: 3.03 ± 1.03 h
- AUC(0-t) [3, 11]: 37500 ± 10800 ng·h/mL
- half-life [3, 11]: 3.83 ± 2 h
- Cmax [3, 11]: 27600 ± 4800 ng/mL
- MRT inf [3, 11]: 3.48 ± 1.36 h
- AUC(0-t) [3, 12]: 105000 ± 30900 ng·h/mL
- half-life [3, 12]: 4.31 ± 1.6 h
- Cmax [3, 12]: 78600 ± 22000 ng/mL
- MRT inf [3, 12]: 3.38 ± 0.96 h
- bioavailability ([3]; beagle, dog, plasma, po, single intragastric 3 mg/kg, from mean AUC0-t, read-out: absolute bioavailability): 59.5%
- DSC peak after treatment ([4]; Grinding treatment for 10 minutes): >300 °C
- DSC peak after treatment ([4]; Heating treatment for 3 hours at 80° C.): >300 °C
- DSC peak after treatment ([4]; Pressing treatment): >300 °C
- stability of the crystal form ([4]; grinding, heating and pressure): stable

SMILES: O=C(O)C1(Sc2ccnc3ccc(Br)cc23)CCC1 [1-((6-bromoquinolin-4-yl)thio)cyclobutane-1-carboxylic acid, reference compound]
- solubility in water (solubility in water): almost insoluble
